Assay results as given in patent US20190142864A1, “METHODS AND SYSTEMS, FOR INTERFERING WITH VIABILITY OF BACTERIA AND RELATED ANTIMICROBIALS AND COMPOSITIONS” (CALIFORNIA INSTITUTE OF TECHNOLOGY, priority 2017, published 2019).
“Also recorded” adds a separate entry of the source.

Key:
P. aeruginosa cultures [1] = experiment: Bacterial-survival endpoint assay, viable-cell plate counts after 4 hr; format: cell-based, Pseudomonas aeruginosa; details: for lethality (viable-cell plate counts): anoxic conditions with 400 μM nitrate; for lethality (viable-cell plate counts) / sensitivity of cultures (viable-cell plate counts): 40 μg/ml tobramycin, 10 mM chlorate
Experimental: In aerobic-survival endpoint assays, overnight aerobic cultures were pelleted, washed twice with and resuspended in LB, and added to a 96-well microtiter plate at high cell density (optical density at 500 nm [OD500]˜3). Wells also contained sodium chlorate (final concentration, 10 mM), sodium chlorite (final concentration, 10 mM), tobramycin (final concentration, 40 μg ml^−1), or an equal volume (20 μl) of dH2O in untreated-control wells (200-μl total volume per well). Ninety-six-well plates were incubated at 37° C. with shaking at 250 rpm for 4 hr before viable cells on plates were counted. Anaerobic-survival endpoint assays were performed as described above, except […], […], and 96-well plates were incubated anaerobically at 33° C. for 4 hr and then removed from the glove box so that cultures could be serially diluted for viable-cell plate counts.
(§1) Viable-cell plate counts were performed by serially diluting samples in phosphate-buffered saline (PBS). Dilutions spanning 7 orders of magnitude were plated on LB agar plates as 10-μl drips. Plates were incubated at 37° C. for ˜20 h, and incubation continued at room temperature (72 hr of total incubation) to allow for the growth of slow-growing colonies. Colonies were counted daily, and numbers of CFU per milliliter were calculated at the end of the incubation period. All viable-cell plate counting was carried out under aerobic conditions.
High-density P. aeruginosa cultures (˜10^9CFU ml^−1) were incubated with and without drugs under oxic conditions, […], or anoxic conditions without nitrate (no terminal electron acceptor) for 4 h, after which viability was determined (FIG. 1).

P. aeruginosa cultures [2] = experiment: 72 hr survival assay with viable-cell counts and chlorate quantification; format: cell-based, Pseudomonas aeruginosa; details: 1 mM chlorate
Experimental: as §1

[3] = system: P. aeruginosa ΔlasR mutant; experiment: 72 hr anoxic survival assay with viable-cell counts and chlorate quantification, ΔlasR; format: cell-based, Pseudomonas aeruginosa; details: anoxic conditions, 1 mM chlorate
Experimental: as §1

[4] = system: P. aeruginosa narG transposon mutant; experiment: Anaerobic adaptation and survival, narG mutant; format: cell-based, Pseudomonas aeruginosa; details: 1 mM chlorate, 72 hr anoxic
Experimental: Overnight cultures were grown aerobically in LB with 40 mM KNO3, 100 mM L-arabinose, 50 μg ml^−1 gentamicin (for strains containing pMQ72-derived plasmids), and 50 μg ml^−1 kanamycin (for transposon insertion strains). Overnight cultures were pelleted, washed twice in LB with 100 mM L-arabinose to remove antibiotics, and resuspended in LB with 100 mM L-arabinose with or without 1 mM sodium chlorate at high cell density (OD500˜3). Two hundred microliters of resuspended culture was added to 96-well microtiter plates, and the plates were moved to the anaerobic glove box for cells to adapt to the anaerobic lifestyle. After a 72-hr incubation at 33° C., 96-well plates were removed from the anaerobic glove box and viable cells on plates were counted to calculate numbers of CFU per milliliter (described above). Percent survival was calculated for each strain by dividing CFU-permilliliter values from cultures containing chlorate by the average CFU-per-milliliter value from control cultures lacking chlorate and multiplying by 100. CFU-per-milliliter values of untreated control cultures were similar across strains, ranging from 1.0×10^9 to 2.2×10^9. The percentage of chlorate remaining after the 72-hr incubation was determined for each strain by dividing the final chlorate concentration in each culture by the initial chlorate concentration in the medium and multiplying by 100. […]

[5] = system: P. aeruginosa ΔlasR ΔnarGHJI strain; experiment: Anaerobic adaptation and survival, ΔlasR ΔnarGHJI; format: cell-based, Pseudomonas aeruginosa; details: 1 mM chlorate, 72 hr anoxic
Experimental: The narGHJI genes were deleted in WT PA14 and the isogenic ΔlasR background. The region upstream of narG was amplified using primers 5′-[…]-3′ (SEQ ID NO: 11) and 5′-[…]-3′ (SEQ ID NO: 12), and the region downstream of narI was amplified using primers 5′-[…]-3′ (SEQ ID NO: 13) and 5′-[…]-3′ (SEQ ID NO: 14). These fragments were cloned into HindIII- and SacI-digested pMQ30 (89) via Gibson cloning. […]
Overnight cultures were grown aerobically in LB with 40 mM KNO3, 100 mM L-arabinose, 50 μg ml^−1 gentamicin (for strains containing pMQ72-derived plasmids), and 50 μg ml^−1 kanamycin (for transposon insertion strains). […] After a 72-hr incubation at 33° C., 96-well plates were removed from the anaerobic glove box and viable cells on plates were counted to calculate numbers of CFU per milliliter (described above). Percent survival was calculated for each strain by dividing CFU-permilliliter values from cultures containing chlorate by the average CFU-per-milliliter value from control cultures lacking chlorate and multiplying by 100. […] The percentage of chlorate remaining after the 72-hr incubation was determined for each strain by dividing the final chlorate concentration in each culture by the initial chlorate concentration in the medium and multiplying by 100.

[6] = system: P. aeruginosa aggregate biofilms; experiment: Agar block biofilm assay (ABBA), LIVE/DEAD staining and confocal microscopy; format: cell-based, Pseudomonas aeruginosa; details: 6 hr treatment; for killing of cells in aggregates at depth (SYTO 9/propidium iodide) / killing of cells in middepth aggregates (SYTO 9/propidium iodide) / killing of cells in surface aggregates (SYTO 9/propidium iodide): 40 μg/ml tobramycin, 10 mM chlorate; for viability of cells at depths of >200 μm: tobramycin compared to untreated samples
Experimental: Overnight aerobic cultures were diluted to an OD500 of 0.001 in molten agar growth medium that had been cooled to 44° C. For all agar block biofilm assays (ABBAs), the growth medium used was LB with 5 mM KNO3 and 0.5% noble agar. A portion of the dilution (175 p.1) was added to chambered cover glass slides (Thermo Fisher Scientific number 155409), solidified at room temperature, and incubated at 37° C. for 12 hr in a humidified chamber. After incubation, cells that were not suspended in the agar were removed by adding 400 μl PBS to the top of each agar block and gently pipetting. Liquid was removed by inversion, and the wash was repeated. Aggregate cells were then treated by pipetting 125 μl of 24 mM sodium chlorate (final concentration, 10 mM), 125 μl of 96 μg ml^−1 tobramycin (final concentration, 40 μg ml^−1), or 62.5 μl of 48 mM chlorate and 62.5 μl of 192 μg ml^−1 tobramycin in combination (10 mM and 40μg m^−1 final concentrations, respectively) on the top of the agar block. All chlorate and tobramycin solutions were made in LB, and 125 μl LB was pipetted on the top of untreated control agar blocks. Treated and untreated samples were incubated at 37° C. in a humidified chamber, with shaking at 220 rpm for 6 hr. After incubation, samples were inverted to remove liquid, and cells were stained using a BacLight LIVE/DEAD bacterial viability staining kit (Thermo Fisher Scientific number L7012). One hundred twenty-five microliters of staining solution (1 μl 3.34 mM SYTO 9, 1 μl 20 mM propidium iodide, 123 μl dH2O) was added to each sample, and samples were incubated at room temperature on a VWR variable-speed rocker at the highest speed for 90 min before being imaged.
Before being imaged, ABBA samples were inverted to remove the staining solution, and 75 μl of a 1:50 dilution of 5-μm fluorescent beads (Spherotech; CFP-5045-2) was added to each sample. Excess liquid was removed by wicking, and beads were used to mark the surface of each sample. ABBA aggregates were imaged using a Leica TCS SPE confocal microscope with an ACS APO 0.3-numeric-aperture/10× objective. The agar surface was determined by visualizing fluorescent beads using a 405-nm solid-state laser for excitation, with data collected from 425 to 475 nm. LIVE/DEAD data were collected using a 488-nm solid-state laser for excitation, with emission collected at 510 to 550 nm and 610 to 650 nm for SYTO 9 and propidium iodide, respectively. Images were collected from three distinct locations near the center of each well as 500-μm z-stacks (50 slices total, 10-μm step size). z-stacks were collected in 8-bit mode with a scan format of 512 by 512 pixels (for quantification) or 1,024 by 1,024 pixels (for representative images) and line averaging of 2. Representative images were chosen from 6 independent experiments.
To quantify ABBA staining, images were loaded in Fiji (92), and background was subtracted from each image using the rolling ball method with a radius of 100 pixels. A threshold was applied to all images to exclude pixels with a value of <20, and total pixel intensity for both stains was determined for each image using the RawIntDen value in the Integrated Density measurement function. The proportion of sensitive cells was determined for each image (at each depth) by dividing the propidium iodide integrated density by the sum of the propidium iodide- and SYTO 9-integrated densities. ABBA staining quantifications are averages from 6 independent experiments (3 technical replicates per independent experiment).
In the ABBA system, an overnight culture is diluted into 0.5% molten agar medium, allowed to solidify, and incubated overnight at 37° C. Agar-suspended cells grow as aggregates, which develop into metabolically distinct populations at different spatial scales.

[7] = Stability of concentrations in cell-free growth medium (ion chromatography); details: LB, 72 hr; 1 mM chlorate oxic, anoxic, anoxic with 40 mM nitrate; 40 mM nitrate anoxic plus 1 mM chlorate
Experimental: One millimolar chlorate concentrations were monitored in LB that was incubated for 72 hr under oxic conditions (filled circles), anoxic conditions (open circles), and anoxic conditions with 40 mM nitrate (open circles). Forty millimolar nitrate concentrations were monitored in LB medium that was incubated for 72 hr under anoxic conditions plus 1 mM chlorate (filled circles).
Culture samples were centrifuged at 16,000×g at room temperature for 10 min to pellet cells. Supernatants were diluted 1:10 in dH2O and added to 0.5-ml vials (Thermo Fisher Scientific catalog numbers 038010 and 038011). Nitrate and chlorate concentrations were quantified using the Dionex ICS 2000 ion chromatography system (Environmental Analysis Center, Caltech). Samples were loaded via a 15-μl sample loop onto an AS-19 separator (2- by 250-mm) column protected by an AG-19 guard (2 by 50 mm), maintained at 30° C. […] Anions were detected at neutral pH using an AERS 500 2-mm suppressor (Thermo Fisher Scientific) operated in eluent recycle mode with an applied current of 30 mA, and the conductivity detection cell was maintained at 35° C. […] Sodium chlorate and potassium nitrate standards were used to identify sample analytes via retention time and to generate standard curves for quantifying analyte concentrations.

[8] = anoxic conditions with 40 mM nitrate
[9] = anoxic conditions without nitrate

Molecule	lethality (viable-cell plate counts) (P. aeruginosa cultures [1])	sensitivity of cultures (viable-cell plate counts) (P. aeruginosa cultures [1]; [8])	sensitivity of cultures (viable-cell plate counts) (P. aeruginosa cultures [1]; [9])	sensitivity of cultures (viable-cell plate counts) (P. aeruginosa cultures [1]; oxic conditions)	chlorate-associated cell death (P. aeruginosa cultures [2]; anoxic cultures with 40 mM nitrate)	chlorate-associated cell death (P. aeruginosa cultures [2]; oxic cultures)	viable-cell counts in ΔlasR cultures lower than WT at end of experiment [3] [fold]	chlorate sensitivity (viable-cell counts) ([4]; narG mutant complemented with narGHJI genes)	chlorate sensitivity (viable-cell counts) ([4]; narG mutant)	chlorate sensitivity (percent survival) [5]	killing of cells in aggregates at depth (SYTO 9/propidium iodide) [6]	killing of cells in middepth aggregates (SYTO 9/propidium iodide) [6]	killing of cells in surface aggregates (SYTO 9/propidium iodide) [6]	viability of cells at depths of >200 μm [6]	stability of concentration in cell-free growth medium (abiotic controls) [7]	sensitivity of anoxic cultures compared with oxic cultures (P. aeruginosa cultures [1]; 10 mM chlorite)
[O-][Cl+2]([O-])O [chlorate, sodium chlorate]	indistinguishable from that in cultures lacking nitrate	does not kill; also recorded: tolerant	sensitive; also recorded: kills	does not kill	does not occur until nitrate is consumed	no chlorate-associated cell death	100	restores chlorate sensitivity	resistant	chlorate tolerant	killed	the exterior of middepth aggregates are chlorate tolerant, whereas aggregates at depth and the interior of middepth aggregates are killed	tolerant	most cells at depths of >200 μm are dead	stable	
O=[N+]([O-])[O-].[K+] [nitrate, KNO3]															stable	
NC[C@H]1O[C@H](O[C@H]2[C@H](O)[C@@H](O[C@H]3O[C@H](CO)[C@@H](O)[C@H](N)[C@H]3O)[C@H](N)C[C@@H]2N)[C@H](N)C[C@@H]1O [tobramycin, reference compound]	indistinguishable from that in cultures lacking nitrate	sensitive	tolerant	sensitive							tolerant	cells on the exterior being killed and cells on the interior staying alive	killed	increased survival		
sodium chlorite [reference compound]																much more sensitive
